Earlier results in patent publication US20150276574A1, “CELL ANALYSIS METHOD” (SYSMEX CORPORATION, priority 2014, published 2015).

settings: not given

Row | Molecule | Solubility in 100 g of water at 20° C.
1 | CC(C)=CC(=O)O [3-methylcrotonic acid] | ≥ 2 g

same assay, conditions: 100 g of water, 20° C.

Row | Molecule | Solubility in 100 g of water at 20° C.
2 | CCC(O)C(=O)O (centres unmarked) [2-hydroxybutyric acid] | ≥ 5 g
3 | CC1=CC(=O)OC1=O [citraconic anhydride] | ≥ 10 g
4 | NC(=O)NCCC[C@H](N)C(=O)O [citrulline] | 20 g
5 | O=C(O)CCCC(=O)O [glutaric acid] | 43 g
6 | O=C(O)/C=C\C(=O)O [maleic acid] | 44 g
7 | O=C(O)CC(O)C(=O)O (centres unmarked) [malic acid] | 5 g
8 | aminobutanoic acid | ≥ 5 g
